{"source": "patent US20140314780A1", "about": "“Compositions Using Antibodies Directed to GPNMB and Uses Thereof” (Celldex Therapeutics, Inc., priority 2008, published 2014)", "type_in_all_cases": "cell-based, human", "key": {"shed GPNMB": {"test_system": "shed GPNMB", "assay": "GPNMB shedding: immunoblotting of conditioned media (supernatants)", "settings": "conditioned media of WM2664, UACC62; 48 hours (FIG. 7A, 7B)", "text": "Shedding of membrane proteins is a common phenomenon that may affect ADC activity. To investigate potential GPNMB shedding, conditioned media collected from melanoma cell lines was immunoblotted for GPNMB (FIG. 7A). […] Shed GPNMB was also readily detected in conditioned media harvested from several other melanoma and glioblastoma cell lines examined, although a very low level of shed GPNMB was found in conditioned media harvested from A375 melanoma cells, a finding which is consistent with the low basal level of GPNMB expression by these cells."}, "[1]": {"test_system": "GPNMB surface expression on WM2664 melanoma cells", "assay": "Flow cytometry of GPNMB surface expression, WM2664 cells", "settings": "for GPNMB surface expression, flow cytometry GeoMean: WM2664, CR011 (anti-GPNMB) primary antibody; for GPNMB surface expression: melanoma cells (WM2664), 48 hours (Table 37, bottom right)", "procedure": "The following day, cells were treated as indicated in the figures/legends, harvested with versene (Invitrogen), washed with PBS and incubated with primary antibody (10 μg/mL) diluted in staining buffer (PBS pH 7.4, 4% FBS, 0.1% sodium azide) for 30 minutes on ice. […] After incubation with primary antibody, samples were washed with staining buffer and then incubated with secondary antibody (PE-conjugated anti-human antibody; 1:100) for 30 minutes on ice. After incubation, samples were washed with staining buffer and examined on a Becton Dickinson FACSCalibur flow cytometer (BD Immunocytometry Systems, San Jose, Calif.). Data analysis was performed with Becton Dickinson Cell Quest software and the geometric mean fluorescence intensity (GeoMean) was determined for each sample.\nFor the data shown in Table 37, flow cytometry was performed on intact, non-permeabilized cells using the indicated primary monoclonal antibodies. The CR011 antibody utilized was not MMAE-conjugated, but is the same antibody used to generate CR011-vcMMAE. The results are reported as GeoMeans. For the data shown in the top panel of Table 37, A375 (melanoma) or SF539 (glioblastoma) cells were treated with the indicated concentrations of MEKi (U0126), RAFKi (553013) or ERKi (FR180204) for 12, 24 or 48 hours prior to analysis. For the data shown in the bottom left panel of Table 37, SKMEL2 (melanoma) cells were treated with MEKi (U0126; 10 uM), imatinib (20 uM), p38i (p38 MAPKi SB202190; 50 uM), NH4Cl (ammonium chloride; 20 mM) or CLQ (chloroquine; 20 uM) for 48 hours prior to analysis. For the data shown in the bottom right panel of Table 37, WM2664 (melanoma) cells were treated with MON (monensin) or MMPi (GM6001) for 48 hours prior to analysis."}, "GPNMB": {"test_system": "GPNMB", "assay": "Immunoblotting for GPNMB on whole-cell lysates of cancer cell lines after drug exposure", "settings": "whole-cell lysates, 48 hours (FIG. 7)", "text": "Cancer cell lines were of human origin and were obtained from the American Type Culture Collection (Manassas, Va.) and from the National Cancer Institute (Bethesda, Md.) and cultured in RPMI-1640 supplemented with 10% FBS (growth media). Sources of reagents were as follows: RAFKi (553013), MEKi (U0126), MEKi (PD98059), MEKi (444939), ERKi (FR180204), p38 MAPKi (SB202190), p38 MAPKi (SB203580), aurora kinase inhibitor (189404), JNK inhibitor (420119), MMPi (GM6001) were from EMD Chemicals (San Diego, Calif.). ERKi (A6355), RAFKi: (GW5074), ammonium chloride (NH4Cl), chloroquine, monensin, cyclohexamide and emetine were from Sigma (Saint Louis, Mo.). HSP90i (geldanamycin) was from AG Scientific (San Diego, Calif.) and imatinib (Gleevec) was purchased from a pharmacy.\nCells were seeded in 6-well tissue culture dishes at a subconfluent density and allowed to attach overnight. For harvesting cell lysates, media was removed, cells were briefly washed with serum-free media and then 1× Tris-glycine SDS sample buffer (Invitrogen, Carlsbad, Calif.) supplemented with 10 mM dithiothreitol (Sigma) was added directly to the wells. Cell lysates were then collected and boiled for 10 minutes. For preparing conditioned media, drug treatments were performed in a minimum volume of growth media (1.5 mL/well). Following 48 hours of incubation, conditioned media was collected, briefly microfuged, mixed with an equal volume of 2× Tris-glycine SDS sample buffer (Invitrogen, Carlsbad, Calif.) supplemented with 20 mM dithiothreitol (Sigma) and boiled for 10 minutes. For cell lysates, samples were quantified and an equal quantity of protein/lane was resolved on 4-20% gradient polyacrylamide gels (Invitrogen) and then transferred to nitrocellulose filters (Invitrogen). The volume of conditioned media loaded/lane was adjusted based on the protein concentration determined in the respective cell lysates. Immunoblotting was performed using standard procedures and the following primary antibodies: MARTI (sc-20032), TYRP2 (sc-25544), TYRP1 (sc-25543), PMEL17 (sc-15010), MAGEA1 (sc-20033), MCSP (sc-20162), MTf (sc-26651), MCAM (sc-18942), pp-ERK (sc-7976) and ERK (sc-94) (preceding antibodies were purchased from Santa Cruz Biotechnologies, Santa Cruz, Calif.), GPNMB (AF2550; R & D Systems, Minneapolis Minn.), actin (A5060; Sigma). Following incubation with the appropriate horseradish peroxidase-conjugated secondary antibodies, enhanced chemiluminescence (GE Healthcare, Chalfont St. Giles, United Kingdom) was used for detection."}}, "note": "Entries after “also recorded” stand apart in the source; their conditions may differ.", "data": [{"molecule": "CNC(=O)[C@H](Cc1c[nH]c2ccccc12)NC(=O)[C@@H](CC(=O)NO)CC(C)C", "note": "[GM6001]", "values": [{"measurement": "GPNMB shedding", "setting": "shed GPNMB", "value": "decreased or eliminated"}, {"measurement": "GPNMB surface expression, flow cytometry GeoMean", "setting": "[1]; MMPi 25 uM", "value": 55.9}, {"measurement": "GPNMB surface expression, flow cytometry GeoMean", "setting": "[1]; MMPi 50 uM", "value": 68.9}, {"measurement": "GPNMB surface expression, flow cytometry GeoMean", "setting": "[1]; MMPi 100 uM", "value": 66.8}, {"measurement": "GPNMB surface expression", "setting": "[1]", "value": "increased GPNMB surface expression"}]}, {"molecule": "CC[C@@]1([C@@H]2O[C@@H]([C@H]3O[C@@](O)(CO)[C@H](C)C[C@@H]3C)C[C@@H]2C)CC[C@H]([C@]2(C)CC[C@]3(C[C@H](O)[C@@H](C)[C@@H]([C@@H](C)[C@@H](OC)[C@H](C)C(=O)O)O3)O2)O1", "note": "[monensin]", "values": [{"measurement": "GPNMB shedding", "setting": "shed GPNMB", "value": "decreased or eliminated; also recorded: strong inhibition"}, {"measurement": "GPNMB surface expression, flow cytometry GeoMean", "setting": "[1]; MON 250 nM", "value": 88.9}, {"measurement": "GPNMB surface expression, flow cytometry GeoMean", "setting": "[1]; MON 500 nM", "value": 86.8}, {"measurement": "GPNMB surface expression", "setting": "[1]", "value": "increased GPNMB surface expression"}, {"measurement": "faster migrating ~110 kDa GPNMB species", "setting": "GPNMB", "value": "increased the expression"}, {"measurement": "slowest migrating cell-associated ~130 kDa GPNMB species", "setting": "GPNMB", "value": "decreased or eliminated"}]}]}
